From patent US20260364186A1, “Chemical Conjugates, Compositions, and Methods of Preparation and Use Thereof” (Transfection Holdings Limited, priority 2022, published 2026)
“Also recorded” adds a separate entry of the source.

What was measured:
[1] = tested on: HEM (human epidermal melanocytes); experiment: FACS uptake of BODIPY FL conjugates, 50 nM, 5 min (Example 1); assay type: cell-based; details: HEM / normal melanocytes
Description: FIG. 1. Conjugate compounds coupled to BODIPY FL were tested for uptake using 50 nM each conjugate and 5 minute incubation with HEM (human epidermal melanocytes) and melanoma cell line NZM11 (BRAF V600E mutant metastatic melanoma). Mean fluorescent intensities (MFI). For these tests, n=300-500, mean±SD. Results were from a single experiment done in triplicate. Cells were sorted by FACS.
Materials and methods: NZM11 is an adherent metastatic melanoma cell derived from a patient with a subcutaneous lesion on their mid back. This human metastatic melanoma is identified with code CBA-1398 from Cell bank Australia. […] Cells of NZM11 diluted in MEMα media and cells of HEMnDP (primary melanocyte cell line) diluted in media 254 were left to settle in 96-wells microplate for 48 hours. 10 μL of 10 mM stock solutions in DMSO from 138 and pantothenic acid/pantothenic acid derivatives coupled to BODIPY were diluted with HBSS to afford 100 nM solution. Then, 100 nM compounds and DMSO solutions were diluted 1:1 with MEMα media for NZM11 and media 254 for HEMnDP to afford 50 nM solutions. After the 48 hour settle time, media was removed from the cells and 200 μL of 50 nM media solutions were poured to each well and incubated for 5 minutes at 37 °C. […] The FACS results output represented the mean of the fluorescence intensities (in arbitrary units) measured for cells sorted in every sample

[2] = tested on: NZM9 (BRAF and NRAS wildtype) melanoma cells; experiment: FACS uptake of BODIPY FL conjugates, 200 nM, 5 min (Example 2); assay type: cell-based, human
Description: (§1) FIG. 2. Conjugate compounds coupled to BODIPY FL were tested for uptake using 200 nM each conjugate and 5 minute incubation with melanoma cell line NZM11 (BRAF V600E mutant metastatic melanoma), melanoma cell line NZM40 (NRAS Q16H mutant metastatic melanoma) and melanoma cell line NZM9 (BRAF and NRAS wildtype metastatic melanoma). Mean fluorescent intensities (MFI). 2,000 cells (NZM11), 1,000 cells (NZM40) and 500-1,000 cells (NZM9). Cells were sorted by FACS. Bars represent mean±SD. Results were from a single experiment done in triplicate.
NZM9 is an adherent cell line which was originally derived from a metastatic melanoma from a patient (from axillary lymph node, source: Cellosaurus database). These cancer cells are BRAF and NRAS wild type. NZM9 present a mutation on gene TP53, which is the most frequent in human cancers, on 179C/T. This gene encodes the synthesis of protein p53 which acts as a tumour suppressor. See Tran et al., 2021; Levine and Owen, 2009; Duffy and Crown, 2021.
(§2) For screening, NZM11, NZM40 and NZM9 cells were suspended at […] dispensed into 96 well plates and left to settle for 48 hours. Then, 10 μL of 10 mM stock solutions in DMSO for the conjugates were diluted with HBSS to afford 400 nM solution. Next, 400 nM compounds and DMSO solutions were diluted 1:1 with MEMα media to afford 200 nM solutions. After 48 hours the media was removed from the 96 well plates and 200 μL of 200 nM conjugates solutions dispensed to each well (in triplicate) and incubated for 5 minutes at 37 °C. After 5 minutes, the media was removed and cells washed with PBS. Then, 100 μL of TrypLE trypsin (ThermoFisher Scientific) were added to each well and incubated for 5 minutes at 37 °C after which, 100 μL of MEMα media were added and samples were sorted through FACS biosort. The FACS results output were represented as the mean of the fluorescence intensities (in arbitrary units) measured for cells sorted in every sample.

[3] = tested on: NZM11 (BRAF V600E) melanoma cells; experiment: as above; assay type: cell-based, human
Description: as §1
Materials and methods: NZM11 is an adherent metastatic melanoma cell which was originally derived from a patient with a subcutaneous lesion on their mid back. This human metastatic melanoma is identified with code CBA-1398 from Cell Bank Australia. […] BRAF is a gene that makes a protein called B-Raf. The gene is involved in sending signals within cells that direct the cell's growth. Around 50% of melanomas bear activating BRAF mutations. In this family of mutations, V600E is the most common, which is a single mutation on codon 600. BRAF mutation is also most common in patients whose tumours arise on skin without chronic sun-induced damage. See Ascierto et al., 2012.
as §2, with “Then, 100 μL of TrypLE trypsin (ThermoFisher Scientific) were added to each well and incubated for 5 minutes at 37 °C after which, 100 μL of MEMα media were added and samples were sorted through FACS biosort.” left out

[4] = tested on: HT29 (colorectal cancer cell line); experiment: FACS uptake of BODIPY FL conjugates (Example 4); assay type: cell-based, human; details: 200 nM, 5 min
Description: FIG. 4A: Conjugate compounds coupled to BODIPY FL were tested for uptake using 200 nM each conjugate and 5 minute incubation with colorectal cancer cell line HT29. Mean fluorescent intensities (MFI). 1,000 cells were sorted by FACS.
Materials and methods: The HT-29 line was originally isolated from a primary tumour in 1964 from a person. This cell line is positive for expression of N-ras and overexpression of p53 antigen. The human colon adenocarcinoma cell line HT29, is not only used to study the biology of human colon cancers, but it is receiving special interest in studies focused on food digestion and bioavailability due to the ability to express characteristics of mature intestinal cells. The application of this cell line to transport studies of drugs and food compounds is illustrated, especially when the effect of the mucus layer is considered or used as co-culture in combination with Caco-2 cells. These cells have shown a high rate of glucose consumption and therefore, they require high glucose concentration in the medium. Verhoeck et al., 2015.
For these experiments, HT-29 or MEF cells were diluted on αMEM media (supplemented with 10% FBS+1% penicillin-streptomycin) to give a 250 cells/μL suspension of which 200 μL were aliquoted into each well of a 96 well plate followed by incubation for 24 hours. Next, 2 μL of 100 μM stock solutions in DMSO from the conjugates coupled to BODIPY were diluted with 998 μL of αMEM media to give a 200 nM solution. After 24 hour incubation, media was removed and 200 μL of 138 and pantothenic acid/pantothenic acid derivatives coupled to BODIPY 200 nM solutions were added and cells were incubated for 5 minutes at 37 °C. After 5 minutes, the compounds and DMSO solutions were removed and cells were washed with PBS. Then, 100 μL of TrypLE trypsin were added to each well and incubated for 5 minutes at 37 °C. After this time, 100 μL of DMEM media were added to the wells and samples were sorted through FACS biosort. The studies were completed in duplicated wells.

Row | SMILES | uptake (fluorescence intensities) [1] | higher fluorescence intensities compared to enantiomer 126 [2] [times] | uptake (fluorescence intensities) [2] | higher fluorescence intensities compared to enantiomer 126 [3] [fold] | uptake (fluorescence intensities) [3] | uptake (fluorescent intensities) [4]
1 | CC1=CC(C)=[N+]2C1=Cc1ccc(CCCn3cc(CCNC(=O)/C=C/NC(=O)[C@H](O)C(C)(C)CO)nn3)n1[B-]2(F)F [Compound 124] | no significant uptake | 7 | highest intensities; also recorded: best targeting activity | 15 | highest intensities; also recorded: best targeting activity | 
2 | CC1=CC(C)=[N+]2C1=Cc1ccc(CCCn3cc(CCNC(=O)/C=C/NC(=O)[C@@H]4OC(C)(C)OCC4(C)C)nn3)n1[B-]2(F)F [Compound 125, (R,E)-N-((((3-[4,4-difluoro-5,7-dimethyl-4-bora-3a,4a-diaza-s-indacene-3-yl]propyl)-1H-1,2,3-triazol-4-yl)eth-ylamino)-3-oxoprop-1-enyl)-2,2,5,5-tetramethyl-1,3-dioxane-4-carboxamide] |  |  | selective uptake; also recorded: significant uptake |  | selective uptake; also recorded: significant uptake | moderately higher fluorescent intensities
3 | CC1=CC(C)=[N+]2C1=Cc1ccc(CCCn3cc(CCNC(=O)/C=C\NC(=O)[C@H]4OC(C)(C)OCC4(C)C)nn3)n1[B-]2(F)F [Compound 131, (Z)—N-((((3-[4,4-Difluoro-5,7-dimethyl-4-bora-3a,4a-diaza-s-indacene-3-yl]propyl)-1H-1,2,3-triazol-4-yl)ethylamino)-3-oxoprop-1-enyl)-2,2,5,5-tetramethyl-1,3-dioxane-4-carboxamide] | significant uptake |  |  |  |  | higher uptakes than their diol counterparts
